Data taken from ChEMBL document CHEMBL1148858, “Discovery of novel benzimidazolones as potent non-nucleoside reverse transcriptase inhibitors active against wild-type and mutant HIV-1 strains” (Bioorg Med Chem Lett, 2007).

What was measured:
[1] = molecular target: Human immunodeficiency virus type 1 reverse transcriptase (Human immunodeficiency virus 1, UniProt Q72547); assay: Inhibition of RNA dependent DNA polymerase activity of HIV1 recombinant reverse transcriptase
[2] = tested on: Human immunodeficiency virus 1; assay: Antiviral activity against HIV1 assessed as reduction of virus-induced cytopathic effect in MT4 cells; format: functional, organism-based; settings: Human immunodeficiency virus 1, MT4
[3] = Cytotoxicity against MT4 cells assessed as reduction of cell viability; format: cell-based; settings: human
[4] = Selectivity index, ratio of CC50 for human MT4 cells to EC50 for HIV1; format: functional
[5] = tested on: Human immunodeficiency virus 1; assay: Antiviral activity against HIV1 3B in CEM cells assessed as inhibition of virus-induced giant cell formation; format: functional, organism-based; settings: Human immunodeficiency virus 1, 3B, CCRF-CEM
[6] = tested on: Human immunodeficiency virus 1; assay: Antiviral activity against HIV1 with reverse transcriptase L100I mutation in CEM cells assessed as inhibition of virus-induced giant cell formation; format: functional, organism-based; settings: Human immunodeficiency virus 1, CCRF-CEM
[7] = tested on: Human immunodeficiency virus 1; assay: Antiviral activity against HIV1 with reverse transcriptase K103N mutation in CEM cells assessed as inhibition of virus-induced giant cell formation; format: functional, organism-based; settings: Human immunodeficiency virus 1, CCRF-CEM
[8] = tested on: Human immunodeficiency virus 1; assay: Antiviral activity against HIV1 with reverse transcriptase E138K mutation in CEM cells assessed as inhibition of virus-induced giant cell formation; format: functional, organism-based; settings: Human immunodeficiency virus 1, CCRF-CEM
[9] = tested on: Human immunodeficiency virus 1; assay: Antiviral activity against HIV1 with reverse transcriptase Y181C mutation in CEM cells assessed as inhibition of virus-induced giant cell formation; format: functional, organism-based; settings: Human immunodeficiency virus 1, CCRF-CEM
[10] = tested on: Human immunodeficiency virus 1; assay: Antiviral activity against HIV1 with reverse transcriptase Y188H mutation in CEM cells assessed as inhibition of virus-induced giant cell formation; format: functional, organism-based; settings: Human immunodeficiency virus 1, CCRF-CEM

Cc1cc(C)cc(Cn2c(=O)[nH]c3ccc(Cl)cc32)c1
IC50 [1]: 150 nM
EC50 [2]: 32 nM
CC50 [3]: 8900 nM
Ratio CC50/EC50 [4]: 281
EC50 [5]: 81 nM
EC50 [6]: 49 nM
EC50 [7]: ≥ 3000 nM
EC50 [8]: 665 nM
EC50 [9]: > 3000 nM
EC50 [10]: > 3000 nM

Cc1cc(C)cc(S(=O)(=O)n2c(=O)[nH]c3ccc(Cl)cc32)c1
IC50 [1]: 5 nM
EC50 [2]: 2 nM
CC50 [3]: 39000 nM
Ratio CC50/EC50 [4]: 17846
EC50 [5]: 3 nM
EC50 [6]: 6 nM
EC50 [7]: 29 nM
EC50 [8]: 15 nM
EC50 [9]: 160 nM
EC50 [10]: 1500 nM

O=c1[nH]c2ccc(Cl)cc2n1Cc1c(F)cccc1F
IC50 [1]: 700 nM
EC50 [2]: 240 nM
CC50 [3]: > 424000 nM
Ratio CC50/EC50 [4]: >1766
EC50 [5]: 374 nM
EC50 [6]: 3100 nM
EC50 [7]: > 50000 nM
EC50 [8]: 2500 nM
EC50 [9]: > 50000 nM
EC50 [10]: > 50000 nM

O=C1Nc2ccc(Cl)cc2[C@@](C#CC2CC2)(C(F)(F)F)O1 [EFAVIRENZ]
CC50 [3]: > 6000 nM
EC50 [7]: 218 nM
EC50 [8]: 9.6 nM
EC50 [9]: 6.1 nM
EC50 [10]: 49 nM

Cc1ccnc2c1NC(=O)c1cccnc1N2C1CC1 [NEVIRAPINE]
EC50 [2]: 73 nM
CC50 [3]: > 15000 nM
EC50 [5]: 30 nM
EC50 [6]: 199 nM
EC50 [7]: 1300 nM
EC50 [8]: 207 nM
EC50 [9]: 2500 nM
EC50 [10]: > 75000 nM
